The supplement of paper PMC5844555

Tests used:
Test in all cases: 3' UTR reporter interaction score (median-centred robust z-score of log2 firefly/Renilla activity); higher = less repression of the 3' UTR reporter
Details in all cases: HEK293T; 48 h
PHOX2B = tested on: PHOX2B
Procedure, shortened: (§1)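 The interaction score is based on the log-transformed firefly/Renilla luciferase ratio, scaled as a robust z-score within each plate by median and median absolute deviation and median-centred for each miRNA; more negative scores indicate interaction. It was averaged over at least two independent screens. Readings were taken 48 h after HEK293T cells (10,000/well, 96-well plates) were co-transfected by DharmaFECT Duo with 100 ng firefly luc2P 3' UTR reporter, 20 ng Renilla pRL-TK and 2.5 pmol miRNA mimic.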

TP53 = tested on: TP53
Procedure, shortened: as §1

MYB = tested on: MYB
Procedure, shortened: as §1

RB1 = tested on: RB1
Procedure, shortened: as §1

MYCN = tested on: MYCN
Procedure, shortened: as §1

MYT1L = tested on: MYT1L
Procedure, shortened: as §1

BRCA2 = tested on: BRCA2
Procedure, shortened: as §1

EZH2 = tested on: EZH2
Procedure, shortened: as §1

NOTCH1 = tested on: NOTCH1
Procedure, shortened: as §1

MYC = tested on: MYC
Procedure, shortened: as §1

HRAS = tested on: HRAS
Procedure, shortened: as §1

FBXW7 = tested on: FBXW7
Procedure, shortened: as §1

ZEB2 = tested on: ZEB2
Procedure, shortened: as §1

PHF6 = tested on: PHF6
Procedure, shortened: as §1

| Sequence | 3' UTR reporter interaction score (PHOX2B) | 3' UTR reporter interaction score (TP53) | 3' UTR reporter interaction score (MYB) | 3' UTR reporter interaction score (RB1) | 3' UTR reporter interaction score (MYCN) | 3' UTR reporter interaction score (MYT1L) | 3' UTR reporter interaction score (BRCA2) | 3' UTR reporter interaction score (EZH2) | 3' UTR reporter interaction score (NOTCH1) | 3' UTR reporter interaction score (MYC) | 3' UTR reporter interaction score (HRAS) | 3' UTR reporter interaction score (FBXW7) | 3' UTR reporter interaction score (ZEB2) | 3' UTR reporter interaction score (PHF6) |
| --- | --- | --- | --- | --- | --- | --- | --- | --- | --- | --- | --- | --- | --- | --- |
| UGAGGUAGUAGUUUGUGCUGU | -1.23 | 0.534 | 1.1 | 0.903 | -3.97 | 0.99 | 0.294 | -4.28 | -0.444 | -3 | 1.26 | 0.144 | 0.496 | 0.213 |
| UGAGUUGGCCAUCUGAGUGAG | -3.59 | -0.988 | 0.927 | 0.000132 | -3.35 | 2.61 | -0.135 | 0.24 | 1.03 | -0.317 | -0.0567 | -0.251 | 0.14 | 2.42 |
| UGAUAUGUUUGAUAUAUUAGGU | 0.239 | 0.331 | -0.701 | -0.392 | 0.278 | 0.136 | -2.64 | -0.107 | 0.183 | 0.0447 | -0.158 | 0.769 | -0.629 | -0.754 |
| UGAUUGGUACGUCUGUGGGUAGA | -0.434 | 0.443 | 1.17 | 0.153 | 0.569 | 0.161 | -0.144 | -0.0408 | -4.51 | -2.85 | 0.535 | -0.747 | -0.485 | -0.0836 |
| UGAUUGUCCAAACGCAAUUCU | 0.249 | -0.447 | 0.183 | 0.331 | 0.178 | -0.829 | 0.855 | -0.465 | 0.81 | -2.91 | 0.277 | -0.0252 | 0.494 | 1.16 |
| UGCACCAUGGUUGUCUGAGCAUG | -1.01 | 0.617 | 0.379 | 0.168 | -5.44 | 0.0254 | 0.899 | 0.00438 | -0.682 | -0.0708 | -0.315 | -1.84 | -1.45 | 0.727 |
| UGCCUGGGUCUCUGGCCUGCGCGU | -0.846 | 0.35 | 0.325 | -2.47 | -0.0821 | -0.227 | -0.375 | -0.794 | 0.3 | 0.101 | -1.95 | -2.61 | 0.387 | 0.782 |
| UGCUGACUCCUAGUCCAGGGC | -0.537 | 0.366 | 0.123 | 2.05 | 0.0884 | 0.333 | -3.34 | 0.906 | -0.364 | 0.54 | -1.77 | 0.322 | -1.99 | 1.06 |
| UGCUUCCUUUCAGAGGGU | -0.331 | -1.13 | 1.13 | -0.583 | 0.0627 | 0.521 | -0.366 | 0.85 | 0.215 | 0.327 | -0.697 | 0.46 | -0.357 | -0.232 |
| UGGAAGACUAGUGAUUUUGUUG | 0.182 | -1.48 | 0.454 | 0.176 | 0.44 | -1.31 | -0.32 | 0.509 | -0.0478 | -0.317 | 0.856 | -0.892 | -0.874 | 0.207 |
| UGGAAUGUAAAGAAGUAUGUA | 0.106 | -1.46 | 0.679 | 0.684 | -0.505 | -0.17 | 0.327 | -0.314 | -0.912 | 0.479 | 1.1 | -2.71 | 0.551 | 0.925 |
| UGGAAUGUAAGGAAGUGUGUGG | 0.446 | -1.12 | -0.696 | 1.33 | -2.18 | 0.351 | -0.366 | 0.341 | -0.967 | 0.26 | 0.0317 | -0.356 | 2.54 | 2.43 |
| UGGACGGAGAACUGAUAAGGGU | -1.18 | 0.461 | 0.576 | -0.376 | -0.133 | 0.408 | 0.362 | -0.0404 | -0.401 | -0.199 | -0.151 | 0.0713 | 0.823 | 0.399 |
| UGGAGAGAAAGGCAGUUC | -0.292 | -1.31 | 0.823 | -0.051 | 0.412 | 0.463 | -0.859 | -0.838 | -0.015 | 0.053 | -0.0201 | -1.52 | 1.17 | -0.104 |
| UGGAGGAGAAGGAAGGUGAUG | 2.06 | -0.557 | 1.88 | 1.82 | 0.481 | 2.74 | -2.61 | -2.61 | -0.968 | -2.42 | -0.351 | -0.125 | 3.77 | -0.248 |
| UGGCAGUGUAUUGUUAGCUGGU | -0.186 | 0.314 | -4.53 | -0.641 | -4.71 | -0.141 | 0.888 | -0.805 | -4.47 | -2.6 | 1.02 | 0.551 | 0.089 | -3.24 |
| UGGCAGUGUCUUAGCUGGUUGUU | -0.535 | 1.68 | -2.9 | -0.641 | -3.64 | 1.45 | 0.486 | 0.955 | -3.59 | -0.668 | 1.33 | -0.0417 | 0.283 | -0.889 |
| UGGCUCAGUUCAGCAGGAACAG | 0.0378 | 0.345 | 0.0413 | 0.0253 | 0.921 | 0.53 | 1.1 | -0.274 | -1.7 | -2.14 | -1.16 | -0.156 | 0.984 | -0.0264 |
| UGGGCGUAUCUGUAUGCUA | 2.15 | -0.0916 | 0.397 | -0.659 | 0.906 | 0.105 | -0.638 | -1.3 | -2.02 | -0.549 | -0.235 | 0.752 | 2.53 | 1.09 |
